From US20080194524A1, “Compounds For the Inhibition of Undesired Cell Proliferation and Use Thereof” (JERINI AG, priority 2003, published 2008)
Where two headings read alike, the source gives them in different places. Where a SMILES comes first, the peptide text is derived from it. [ ]: non-standard residue; d: D form. The star is where a group is joined. 2Nal = N[C@@H](Cc1ccc2ccccc2c1)C(=O)O; pGlu = O=C1CC[C@@H](C(=O)O)N1; Pip = O=C(O)[C@@H]1CCCCN1; CH2PO3H2 = O=P(O)(O)C*

Molecular target: hPin1 (Protein interacting with NIMA (-kinase)) (Homo sapiens, UniProt Q13526)
Sequence (Q13526 whole entry): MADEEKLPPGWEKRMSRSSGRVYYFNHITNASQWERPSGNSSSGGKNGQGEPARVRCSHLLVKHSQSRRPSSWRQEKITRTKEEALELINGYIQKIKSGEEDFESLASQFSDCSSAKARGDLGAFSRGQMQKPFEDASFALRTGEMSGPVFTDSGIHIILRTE
Assay: protease-coupled PPIase assay, hPin1
Assay type: biochemical
[1] = hPin1 6 nM, substrate Ac-Ala-Ala-Ser(PO3H2)-Pro-Arg-pNA, trypsin, 35 mM HEPES pH 7.8, 6° C., read-out: Specificity of the inhibition with rotamases, Target T-1 (IC50 class)

Row | Compound | IC50 [1] [nM] | IC50 [nM]
1 | NC(=O)[C@H](Cc1ccc2ccccc2c1)NC(=O)[C@@H]1CCCCN1C(=O)[C@H](CSCP(=O)(O)O)NC(=O)c1ccccc1 [Compound 20, {2-Benzoylamino-3-[2-(1-carbamoyl-2-naphthalen-2-yl-ethylcarbamoyl)-piperidin-1-yl]-3-oxo-propylsulfanylmethyl}-phosphonic acid] | < 1000 | 
2 | NC(=O)[C@H](Cc1ccc2ccccc2c1)NC(=O)[C@@H]1CCCCN1C(=O)[C@H](CSCP(=O)(O)O)NC(=O)Cc1ccccc1 [Compound 21, {3-[2-(1-Carbamoyl-2-naphthalen-2-yl-ethylcarbamoyl)-piperidin-1-yl]-3-oxo-2-phenylacetylamino-propylsulfanylmethyl}-phosphonicacid] | < 1000 | 
3 | NC(=O)[C@H](Cc1ccc2ccccc2c1)NC(=O)[C@@H]1CCCCN1C(=O)[C@H](CSCP(=O)(O)O)NC(=O)CCc1ccccc1 [Compound 22, [3-[2-(1-Carbamoyl-2-naphthalen-2-yl-ethylcarbamoyl)-piperidin-1-yl]-3-oxo-2-(3-phenyl-propionylamino)-propylsulfanylmethyl]-phosphonicacid] | < 1000 | 
4 | NC(=O)[C@H](Cc1ccc2ccccc2c1)NC(=O)[C@@H]1CCCCN1C(=O)[C@H](CSCP(=O)(O)O)NC(=O)CCCc1ccccc1 [Compound 23, [3-[2-(1-Carbamoyl-2-naphthalen-2-yl-ethylcarbamoyl)-piperidin-1-yl]-3-oxo-2-(4-phenyl-butyrylamino)-propylsulfanylmethyl]-phosphonicacid] | < 1000 | 
5 | NC(=O)[C@H](Cc1ccc2ccccc2c1)NC(=O)[C@@H]1CCCCN1C(=O)[C@H](CSCP(=O)(O)O)NC(=O)Cc1ccc(-c2ccccc2)cc1 [Compound 24, {2-(2-Biphenyl-4-yl-acetylamino)-3-[2-(1-carbamoyl-2-naphthalen-2-yl-ethylcarbamoyl)-piperidin-1-yl]-3-oxo-propylsulfanylmethyl}-phosphonic acid] | < 1000 | 
6 | CC(=O)N[C@@H](Cc1csc2ccccc12)C(=O)N[C@@H](CSCP(=O)(O)O)CN1CCCC[C@H]1C(=O)N[C@@H](Cc1ccc2ccccc2c1)C(N)=O [Compound 25, {2-(2-Acetylamino-3-benzo[b]thiophen-3-yl-propionylamino)-3-[2-(1-carbamoyl-2-naphthalen-2-yl-ethylcarbamoyl)-piperidin-1-yl]-propylsulfanylmethyl}-phosphonicacid] | < 1000 | 
7 | CC(=O)N[C@@H](Cc1csc2ccccc12)C(=O)N[C@@H](CSCP(=O)(O)O)C(=O)N(C)N(C)C(=O)N[C@@H](Cc1ccc2ccccc2c1)C(N)=O [Compound 26, Ac-Bta-Cys(CH2—P(O)(OH)2)-NMeazaAla-2Nal-NH2] | < 1000 | 
8 | CC(=O)N[C@@H](Cc1csc2ccccc12)C(=O)N[C@@H](CSCP(=O)(O)O)C(=O)N(C)NC(=O)N[C@@H](Cc1ccc2ccccc2c1)C(N)=O [Compound 27, Ac-Bta-Cys(CH2—P(O)(OH)2)-NMeazaGly-2Nal-NH2] | < 1000 | 
9 | NC(=O)[C@H](Cc1ccc2ccccc2c1)NC(=O)[C@@H]1CCCCN1C(=O)CSCP(=O)(O)O [Compound 28, {2-[2-(1-Carbamoyl-2-naphthalen-2-yl-ethylcarbamoyl)-piperidin-1-yl]-2-oxo-ethylsulfanylmethyl}-phosphonic acid] | < 1000 | 
10 | NC(=O)[C@H](Cc1ccc2ccccc2c1)NC(=O)[C@@H]1CCCCN1C(=O)[C@H](CSCP(=O)(O)O)NC(=O)[C@@H]1CCC(=O)N1 [Compound 39, {3-[2-(1-Carbamoyl-2-naphthalen-2-yl-ethylcarbamoyl)-piperidin-1-yl]-3-oxo-2-[(5-oxo-pyrrolidine-2-carbonyl)-amino]-propylsulfanyl-methyl}-phosphonic acid] ([pGlu]C(CH2PO3H2)[Pip][2Nal]-NH2) |  | < 1000
11 | CC(C)COC(=O)N[C@@H](CSCP(=O)(O)O)C(=O)N1CCCC[C@H]1C(=O)N[C@@H](Cc1ccc2ccccc2c1)C(N)=O [Compound 43, {3-[2-(1-Carbamoyl-2-naphthalen-2-yl-ethylcarbamoyl)-piperidin-1-yl]-2-isobutoxycarbonylamino-3-oxo-propylsulfanylmethyl}-phosphonic acid] | 1000 to 10000 | 
12 | CCCCOC(=O)N[C@@H](CSCP(=O)(O)O)C(=O)N1CCCC[C@H]1C(=O)N[C@@H](Cc1ccc2ccccc2c1)C(N)=O [Compound 44, {2-Butoxycarbonylamino-3-[2-(1-carbamoyl-2-naphthalen-2-yl-ethylcarbamoyl)-piperidin-1-yl]-3-oxo-propylsulfanylmethyl}-phosphonic acid] | 1000 to 10000 | 
13 | NC(=O)[C@H](Cc1ccc2ccccc2c1)NC(=O)[C@@H]1CCCCN1C(=O)[C@H](CSCP(=O)(O)O)NC(=O)Oc1ccccc1 [Compound 46, {3-[2-(1-Carbamoyl-2-naphthalen-2-yl-ethylcarbamoyl)-piperidin-1-yl]3-oxo-2-phenoxycarbonylamino-propylsulfanylmethyl}-phosphonicacid] |  | < 1000

More lines, main results first:

Row | IC50 [1] [nM] | Compound | IC50 [nM]
14 | < 1000 | NC(=O)[C@H](Cc1ccc2ccccc2c1)NC(=O)[C@@H]1CCCCN1C(=O)CCSCP(=O)(O)O [Compound 29, {3-[2-(1-Carbamoyl-2-naphthalen-2-yl-ethylcarbamoyl)-piperidin-1-yl]-3-oxo-propylsulfanylmethyl}-phosphonic acid] | 
15 | 1000 to 10000 | CC(=O)N[C@@H](CSCP(=O)(O)O)C(=O)N1CCCC[C@H]1C(=O)N[C@@H](Cc1ccc2ccccc2c1)C(N)=O [Compound 30, {2-Acetylamino-3-[2-(1-carbamoyl-2-naphthalen-2-yl-ethylcarbamoyl)-piperidin-1-yl]-3-oxo-propylsulfanylmethyl}-phosphonic acid] | 
16 | < 1000 | NC(=O)[C@H](Cc1ccc2ccccc2c1)NC(=O)[C@@H]1CCCCN1C(=O)[C@H](CSCP(=O)(O)O)NC(=O)OCc1ccccc1 [Compound 31, {2-Benzyloxycarbonylamino-3-[2-(1-carbamoyl-2-naphthalen-2-yl-ethylcarbamoyl)-piperidin-1-yl]-3-oxo-propylsulfanylmethyl}-phosphonic acid] | 
17 | < 1000 | NC(=O)[C@H](Cc1ccc2ccccc2c1)NC(=O)[C@@H]1CCCCN1C(=O)[C@H](CSCP(=O)(O)O)NS(=O)(=O)Cc1ccccc1 [Compound 32, {3-[2-(1-Carbamoyl-2-naphthalen-2-yl-ethylcarbamoyl)-piperidin-1-yl]-3-oxo-2-phenylmethane-sulfonylaminopropylsulfanyl-methyl}-phosphonic acid] | 
18 | 1000 to 10000 | NC(=O)[C@H](Cc1ccc2ccccc2c1)NC(=O)[C@@H]1CCCCN1C(=O)[C@H](CSCP(=O)(O)O)NC(=O)C1(c2ccccc2)CCCC1 [Compound 33, {3-[2-(1-Carbamoyl-2-naphthalen-2-yl-ethylcarbamoyl)-piperidin-1-yl]-3-oxo-2-[(1-phenyl-cyclopentanecarbonyl)-amino]-propylsulfanylmethyl}-phosphonicacid] | 
19 | < 1000 | NC(=O)[C@H](Cc1ccc2ccccc2c1)NC(=O)[C@@H]1CCCCN1C(=O)[C@H](CSCP(=O)(O)O)NC(=O)Cc1ccccc1Cl [Compound 34, {3-[2-(1-Carbamoyl-2-naphthalen-2-yl-ethylcarbamoyl)-piperidin-1-yl]-2-[2-(2-chloro-phenyl)-acetylamino]-3-oxo-propylsulfanylmethyl}-phosphonicacid] | 
20 | < 1000 | NC(=O)[C@H](Cc1ccc2ccccc2c1)NC(=O)[C@@H]1CCCCN1C(=O)[C@H](CSCP(=O)(O)O)NC(=O)Cc1ccc(Cl)cc1 [Compound 35, {3-[2-(1-Carbamoyl-2-naphthalen-2-yl-ethylcarbamoyl)-piperidin-1-yl]-2-[2-(4-chloro-phenyl)-acetylamino]-3-oxo-propylsulfanylmethyl}-phosphonicacid] | 
21 | < 1000 | COc1ccc(CC(=O)N[C@@H](CSCP(=O)(O)O)C(=O)N2CCCC[C@H]2C(=O)N[C@@H](Cc2ccc3ccccc3c2)C(N)=O)cc1 [Compound 36, {3-[2-(1-Carbamoyl-2-naphthalen-2-yl-ethylcarbamoyl)-piperidin-1-yl]-2-[2-(4-methoxy-phenyl)-acetylamino]-3-oxo-propylsulfanylmethyl}-phosphonicacid] | 
22 | < 1000 | NC(=O)[C@H](Cc1ccc2ccccc2c1)NC(=O)[C@@H]1CCCCN1C(=O)[C@H](CSCP(=O)(O)O)NC(=O)CCC(=O)c1ccc(Cl)cc1 [Compound 37, {3-[2-(1-Carbamoyl-2-naphthalen-2-yl-ethylcarbamoyl)-piperidin-1-yl]-2-[4-(4-chloro-phenyl)-4-oxo-butyrylamino]-3-oxo-propylsulfanylmethyl}-phosphonicacid] | 
23 | < 1000 | COc1ccc(CCCC(=O)N[C@@H](CSCP(=O)(O)O)C(=O)N2CCCC[C@H]2C(=O)N[C@@H](Cc2ccc3ccccc3c2)C(N)=O)cc1 [Compound 38, {3-[2-(1-Carbamoyl-2-naphthalen-2-yl-ethylcarbamoyl)-piperidin-1-yl]-2-[4-(4-methoxy-phenyl)-butyrylamino]-3-oxo-propylsulfanylmethyl}-phosphonicacid] | 
24 | 1000 to 10000 | NC(=O)[C@H](Cc1ccc2ccccc2c1)NC(=O)[C@@H]1CCCCN1C(=O)[C@H](CSCP(=O)(O)O)NC(=O)c1cc2ccccc2o1 [Compound 40, {2-[(Benzofuran-2-carbonyl)-amino]-3-[2-(1-carbamoyl-2-naphthalen-2-yl-ethylcarbamoyl)-piperidin-1-yl]-3-oxo-propylsulfanylmethyl}-phosphonicacid] | 
25 | 1000 to 10000 | NC(=O)[C@H](Cc1ccc2ccccc2c1)NC(=O)[C@@H]1CCCCN1C(=O)[C@H](CSCP(=O)(O)O)NC(=O)CN1CCNCC1 [Compound 41, [3-[2-(1-Carbamoyl-2-naphthalen-2-yl-ethylcarbamoyl)-piperidin-1-yl]-3-oxo-2-(2-piperazin-1-yl-acetylamino)-propylsulfanyl-methyl]-phosphonic acid] | 
26 | 1000 to 10000 | COC(=O)N[C@@H](CSCP(=O)(O)O)C(=O)N1CCCC[C@H]1C(=O)N[C@@H](Cc1ccc2ccccc2c1)C(N)=O [Compound 45, {3-[2-(1-Carbamoyl-2-naphthalen-2-yl-ethylcarbamoyl)-piperidin-1-yl]-2-methoxycarbonylamino-3-oxo-propylsulfanylmethyl}-phosphonic acid] | 
